pIC50: −log10 of the molar value. Where a name gives a salt, the structure may show the parent alone.
Molecular target: HPK1 (Homo sapiens (Human), UniProt Q92918)
Experiment: HPK1 biochemical enzyme assay (microfluidic mobility shift assay)
Details: 1.5 nM HPK1, ATP 1 mM final, 30 min preincubation, 60 min at RT, Caliper EZ Reader; read-out: HPK1 1000UMATP caliper IC50
In short: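 Mobility shift readout of HPK1 activity after a 60 min RT reaction with 1 mM ATP, 1 μM substrate and 5 mM MgCl2. Enzyme/substrate mix was first exposed to compounds for 30 min, using ten-point curves topping at 3 μM final.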

HPK1, sequence (Q92918 whole entry): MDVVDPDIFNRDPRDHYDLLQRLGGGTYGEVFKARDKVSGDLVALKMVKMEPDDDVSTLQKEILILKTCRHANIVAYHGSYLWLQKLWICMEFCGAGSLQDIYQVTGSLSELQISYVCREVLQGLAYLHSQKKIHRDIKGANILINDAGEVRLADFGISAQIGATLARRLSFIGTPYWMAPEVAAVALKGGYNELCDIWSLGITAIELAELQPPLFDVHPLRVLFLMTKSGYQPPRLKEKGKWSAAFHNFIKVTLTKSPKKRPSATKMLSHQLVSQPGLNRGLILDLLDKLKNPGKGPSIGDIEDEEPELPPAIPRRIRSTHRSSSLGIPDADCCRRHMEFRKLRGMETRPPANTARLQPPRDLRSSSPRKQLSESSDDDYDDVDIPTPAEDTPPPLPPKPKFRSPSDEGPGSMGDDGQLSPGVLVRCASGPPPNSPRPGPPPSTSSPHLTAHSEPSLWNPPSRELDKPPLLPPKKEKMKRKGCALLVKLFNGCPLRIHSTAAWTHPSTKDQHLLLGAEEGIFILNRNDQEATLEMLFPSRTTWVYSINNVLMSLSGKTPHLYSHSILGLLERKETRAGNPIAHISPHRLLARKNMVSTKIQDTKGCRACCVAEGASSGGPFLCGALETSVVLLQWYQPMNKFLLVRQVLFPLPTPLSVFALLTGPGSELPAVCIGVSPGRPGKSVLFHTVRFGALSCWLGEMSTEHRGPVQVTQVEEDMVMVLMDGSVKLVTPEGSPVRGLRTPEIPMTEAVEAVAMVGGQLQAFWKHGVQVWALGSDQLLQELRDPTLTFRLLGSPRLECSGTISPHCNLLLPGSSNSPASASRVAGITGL

**Q.** “(S)-7-((5-(4-hydroxypiperidin-1-yl)pyridin-2-yl)amino)-3-methyl-4-(1-methyl-1H-pyrrolo[2,3-b]pyridin-4-yl)isoindolin-1-one [I-286]” was tested. Which pIC50 did it give?
**A.** < 6.00

**Q.** How did the pIC50 turn out when `CN(C)Cc1nc(Nc2ccc(-c3cnc4cc(F)ccn34)c3c2C(=O)NC3)ccc1[C@H]1CCN(C)C(=O)C1` [I-556, (S)-7-((6-((dimethylamino)-methyl)-5-(1-methyl-2-oxopiperidin-4-yl)pyridin-2-yl)amino)-4-(7-fluoroimidazo [1,2-a]pyridin-3-yl)isoindolin-1-one] was run?
**A.** > 7.00

**Q.** How did the pIC50 turn out when `O=C1NCc2c(-c3cnc4cc(F)ccn34)ccc(Nc3ccc(N4CC[C@@H](O)[C@H](F)C4)cn3)c21` [I-399, 7-((5-((3R,4R)-3-fluoro-4-hydroxy-piperidin-1-yl)pyridin-2-yl)amino)-4-(7-fluoroimidazo [1,2-a]pyridin-3-yl)isoindolin-1-one] was run?
**A.** > 7.00

**Q.** With `O=C1NCc2c(-c3cnc4cc(Cl)ccn34)ccc(Nc3ccc(N4CCOCC(O)C4)cn3)c21` (stereo in doubt) [I-595, (S)-4-(7-chloroimidazo [1,2-a]pyridin-3-yl)-7-((5-(6-hydroxy-1.4-oxazepan-4-yl)pyridin-2-yl)amino)isoin-dolin-1-one] as the molecule, how does the pIC50 read?
**A.** > 7.00

**Q.** `C[C@H]1C[C@@H](O)CCN1c1ccc(Nc2ccc(-c3cnc4cnccn34)c3c2C(=O)NC3)nc1` [I-349, 7-((5-((2S,4S)-4-hydroxy-2-methylpiperidin-1-yl)pyridin-2-yl)amino)-4-(imidazo[1,2-a]pyrazin-3-yl)isoindolin-1-one] was tested. Which pIC50 did it give?
**A.** > 7.00

**Q.** `CN1CCN(c2ccc(Nc3cnc(-c4cnc5n4CCC5)c4c3C(=O)NC4)nc2)CC1` [I-268, 4-(6,7-dihydro-5H-pyrrolo[1,2-a]imidazol-3-yl)-7-((5-(4-methylpiperazin-1-yl)pyridin-2-yl)amino)-2.3-dihydro-1H-pyrrolo[3,4-c]pyridin-1-one] was tested. Which pIC50 did it give?
**A.** 6.00 to 7.00

**Q.** How did the pIC50 turn out when `O=C1NCc2c(-c3cnc4cccnn34)ccc(Nc3ccc(N4CCNCC4)cn3)c21` [I-82, 4-imidazo[1,2-b]pyridazin-3-yl-7-[(5-piperazin-1-yl-2-pyridyl)amino] isoindolin-1-one] was run?
**A.** > 7.00

**Q.** `Cc1ccc2ncc(-c3ccc(Nc4ccc(N5CCNCC5)cn4)c4c3CNC4=O)n2c1` [I-86, 4-(6-methylimidazo [1,2-a]pyridin-3-yl)-7-[(5-piperazin-1-yl-2-pyridyl)amino] isoindolin-1-one] was tested. Which pIC50 did it give?
**A.** > 7.00

**Q.** With `O=C1NCc2c(-c3cnc4c(F)cccn34)ncc(Nc3ccc(N4CC[C@H](F)[C@H](O)C4)cn3)c21` [I-658, 7-((5-((3R,4S]-4-fluoro-3-hydroxy-piperidin-1-yl)pyridin-2-yl)amino)-4-(8-fluoroimidazo [1,2-a]pyridin-3-yl)-2,3-dihydro-1H-pyrrolo[3,4-c]pyridin-1-one] as the molecule, how does the pIC50 read?
**A.** > 7.00

**Q.** How did the pIC50 turn out when `O=C1NCc2c(-c3cnc4cnccn34)ccc(Nc3ccc(N4CCCOCC4)cn3)c21` [I-300, 7-((5-(1,4-oxazepan-4-yl)pyridin-2-yl)amino)-4-(imidazo[1,2-a]pyrazin-3-yl)isoindolin-1-one] was run?
**A.** > 7.00

**Q.** How did the pIC50 turn out when `Cc1ccn2c(-c3ncc(Nc4ccc(N5CCO[C@H](C(C)(C)O)C5)cn4)c4c3CNC4=O)cnc2c1F` [I-473, 4-(8-fluoro-7-methyl-imidazo[1,2-a]pyridin-3-yl)-7-[[5-[(2S)-2-(1-hydroxy-1-methyl-ethyl)morpholin-4-yl]-2-pyridyl]amino]-2,3-dihydropyrrolo [3,4-c]pyridin-1-one] was run?
**A.** > 7.00

**Q.** With `CN1CCN(c2ccc(Nc3ccc(-c4cnc5cccnn45)c4c3C(=O)NC4)nc2)CC1` [I-59, 4-imidazo[1,2-b]pyridazin-3-yl-7-[[5-(4-methylpiperazin-1-yl)-2-pyridyl]amino] isoindolin-1-one] as the molecule, how does the pIC50 read?
**A.** > 7.00

**Q.** With `O=C1NCc2c(-c3cnc4cc(F)ccn34)ccc(Nc3cnn(C4CCOCC4)c3)c21` [I-379, 4-(7-fluoroimidazo [1,2-a]pyridin-3-yl)-7-((1-(tetrahydro-2H-pyran-4-yl)-1H-pyrazol-4-yl)amino)isoin-dolin-1-one] as the molecule, how does the pIC50 read?
**A.** 6.00 to 7.00

**Q.** `CC(C)(O)[C@H]1CCCN(c2ccc(Nc3cnc(-c4cnc5ccccn45)c4c3C(=O)NC4)nc2)C1` [I-210, 7-[[5-[(3S)-3-(1-hydroxy-1-methyl-ethyl)-1-piperipyl]-2-pyridyl]-amino]-4-imidazo[1,2-a]pyridin-3-yl-2.3-dihydropyrrolo [3,4-c]pyridin-1-one] was tested. Which pIC50 did it give?
**A.** > 7.00

**Q.** With `O=C1NCc2c(-c3cnc4cc(CN5CC(F)C5)ccn34)ccc(Nc3ccc(N4CCC(O)CC4)cn3)c21` [I-378, 4-(7-((3-fluoroazetidin-1-yl)methyl)imidazo[1,2-a]pyridin-3-yl)-7-((5-(4-hydroxy-piperidin-1-yl)pyridin-2-yl)amino)isoin-dolin-1-one] as the molecule, how does the pIC50 read?
**A.** 6.00 to 7.00

**Q.** `Cc1ccn2c(-c3ccc(Nc4ccc(S(C)(=O)=O)cn4)c4c3CNC4=O)cnc2c1` [I-148, 4-(7-methylimidazo [1,2-a]pyridin-3-yl)-7-[(5-methylsulfony 1-2-pyridyl)amino] isoindolin-1-one] was tested. Which pIC50 did it give?
**A.** > 7.00

**Q.** With `CN1CC(O)(C2CCCN(c3ccc(Nc4ccc(-c5cnc6cc(F)ccn56)c5c4C(=O)NC5)nc3)C2)C1` (stereo in doubt) [I-679, (S)-4-(7-fluoroimidazo [1,2-a]pyridin-3-yl)-7-((5-(3-(3-hydroxy-1-methylazetidin-3-yl)piperidin-1-yl)pyridin-2-yl)amino)isoin-dolin-1-one] as the molecule, how does the pIC50 read?
**A.** > 7.00

**Q.** With `CCOc1c(C#N)ccn2c(-c3ccc(Nc4ccc(N5CCC(O)CC5)cn4)c4c3CNC4=O)cnc12` [I-185, 8-ethoxy-3-[7-[[5-(4-hydroxy-1-piperidyl)-2-pyripyl]amino]-1-oxo-isoindolin-4-yl]imidazo[1,2-a]pyridine-7-carbonitrile] as the molecule, how does the pIC50 read?
**A.** 6.00 to 7.00

**Q.** How did the pIC50 turn out when `O=C1NCc2c(-c3cnc4cc(F)ccn34)ccc(Nc3ccc([C@@H]4CCOC4)c(CN4CCCC4)n3)c21` [I-516, (S)-4-(7-fluoroimidazo [1,2-a]pyridin-3-yl)-7-((6-(pyrrolidin-1-ylmethyl)-5-(tetrahydrofuran-3-yl)pyridin-2-yl)amino)isoin-dolin-1-one] was run?
**A.** > 7.00

**Q.** `O=C1NCc2c(-c3ccnc4ccsc34)ccc(Nc3ccc(N4CCNCC4)cn3)c21` [I-107, 7-[(5-piperazin-1-yl-2-pyridyl)amino]-4-thieno[3,2-b]pyridin-7-yl-isoindolin-1-one] was tested. Which pIC50 did it give?
**A.** > 7.00

**Q.** How did the pIC50 turn out when `CN(C)C1CCCc2ccc(Nc3ccc(-c4cnc5cc(F)ccn45)c4c3C(=O)NC4)nc21` (stereo not shown) [I-536, 7-[[8-(dimethylami-no)-5,6,7,8-tetrahydroquin-olin-2-yl]amino]-4-(7-fluoroimidazo [1,2-a]pyridin-3-yl)isoindolin-1-one Formic acid salt] was run?
**A.** > 7.00

**Q.** `O=C1NCc2c(-c3cnc4cc(F)ccn34)ccc(Nc3ccc([C@@H]4CCOC4)c(CNCC(F)F)n3)c21` (single isomer, unassigned) [I-740] was tested. Which pIC50 did it give?
**A.** > 7.00

**Q.** `O=C1NCc2c(-c3cccc4ccnn34)ncc(Nc3ccc(N4CCC(O)CC4)cn3)c21` [I-368, 7-((5-(4-hydroxypiperidin-1-yl)pyridin-2-yl)amino)-4-(pyrazolo[1,5-a]pyridin-7-yl)-2,3-dihydro-1H-pyrrolo[3,4-c]pyridin-1-one] was tested. Which pIC50 did it give?
**A.** < 6.00

**Q.** How did the pIC50 turn out when `O=C1NCc2c(-c3cnc4cc(F)ccn34)ccc(Nc3cccc(N4CCCC4=O)n3)c21` [I-340, 4-(7-fluoroimidazo [1,2-a]pyridin-3-yl)-7-((6-(2-oxopyrrolidin-1-yl)pyridin-2-yl)amino)isoin-dolin-1-one] was run?
**A.** < 6.00

**Q.** How did the pIC50 turn out when `Cn1ccc2c(-c3ncc(Nc4cncc(N5CC[C@@H]6CNC[C@@H]65)n4)c4c3CNC4=O)ccnc21` (single isomer, unassigned) [I-661] was run?
**A.** 6.00 to 7.00

**Q.** With `COCC1(c2ccc(Nc3ccc(-c4cnc5cc(F)ccn45)c4c3C(=O)NC4)nc2CN(C)C)CCOCC1` [I-831] as the molecule, how does the pIC50 read?
**A.** > 7.00

**Q.** With “4-(7- fluoroimidazo [1,2-a]pyridin- 3-yl)-7-[[5-(4- morpholino-1- piperidyl)-2- pyridyl]amino] isoindolin-1- one [I-488]” as the molecule, how does the pIC50 read?
**A.** > 7.00

**Q.** `Cn1ccc2c(-c3ncc(Nc4cccc(N5CC6(CCN6)C5)n4)c4c3CNC4=O)ccnc21` [I-680, 7-((6-(l,6-diazaspiro[3,3]heptan-6-yl)pyridin-2-yl)amino)-4-(1-methyl-1H-pyrrolo[2,3-b]pyridin-4-yl)-2,3-dihydro-1H-pyrrolo[3,4-c]pyridin-1-one] was tested. Which pIC50 did it give?
**A.** 6.00 to 7.00

**Q.** `CN(C)C1CN(c2nc(Nc3ccc(-c4cnc5cc(F)ccn45)c4c3C(=O)NC4)ccc2C2CCOC2)C1` (stereo in doubt) [I-786, (S)-7-((6-(3-(dimctliylami-no)azetidin-1-yl)-5-(tetrahydrofur-an-3-yl)pyridin-2-yl)amino)-4-(7-fluoroimidazo [1,2-a]pyridin-3-yl)isoindolin-1-one] was tested. Which pIC50 did it give?
**A.** > 7.00

**Q.** With `Cc1ccc2c(-c3ncc(Nc4ccc(N5CCN(C)CC5)cn4)c4c3CNC4=O)c[nH]c2c1` [I-8, 4-(6-methyl-1H-indol-3-yl)-7-[[5-(4-methylpiperazin-1-yl)-2-pyridyl]amino]-2,3-dihydropyrrolo [3,4-c]pyridin-1-one] as the molecule, how does the pIC50 read?
**A.** 6.00 to 7.00

**Q.** `CN1CCN(c2ccc(Nc3cnc(-c4c[nH]c5cc(F)ccc45)c4c3C(=O)NC4)nc2)CC1` [I-53, 4-(6-fluoro-1H-indol-3-yl)-7-[[5-(4-methylpiperazin-1-yl)-2-pyridyl]amino]-2,3-dihydropyrrolo [3,4-c]pyridin-1-one] was tested. Which pIC50 did it give?
**A.** 6.00 to 7.00

**Q.** With `C[C@@H](c1ccc(Nc2ccc(-c3cnc4cc(F)ccn34)c3c2C(=O)NC3)nc1)N1CCC[C@H](O)C1` (stereo in doubt) [I-513, 4-(7-f1uoroimidazo [1,2-a]pyridin-3-yl)-7-((5-((S)-1-((S)-3-hydroxypiperidin-1-yl)ethyl)pyridin-2-yl)amino)isoin-dolin-1-one] as the molecule, how does the pIC50 read?
**A.** > 7.00

**Q.** With `CN(C)C(C)(C)c1nc(Nc2ccc(-c3cnc4cc(F)ccn34)c3c2C(=O)NC3)ccc1[C@H]1CCOC1` [I-832, (R)-7-((6-(2-(dimethylami-no)propan-2-yl)-5-(THF-3-yl)pyridin-2-yl)amino)-4-(7-fluoroimidazo [1,2-a]pyridin-3-yl)isoindolin-1-one] as the molecule, how does the pIC50 read?
**A.** 6.00 to 7.00

**Q.** `Cn1ncc(Nc2ccc(-c3cnc4cc(F)ccn34)c3c2C(=O)NC3)c1C1CCOCC1` [I-396] was tested. Which pIC50 did it give?
**A.** < 6.00

Reference: patent US11021481B2, “Substituted isoindolin-1-ones and 2,3-dihydro-1h-pyrrolo[3,4-c]pyridin-1-ones as HPK1 antagonists” (Nimbus Saturn, Inc., priority 2019, dated 2021)
